Two compounds from patent publication US9518038B2, “Condensation product of theanine derivative and carboxylic acid coumarin derivative, its intermediate, preparation method and use thereof” (SHANDONG YINGDONG YINGHAO BIOTECHNOLOGY, INC., priority 2012, dated 2016) can be followed below.

pIC50: −log10 of the molar value. A value given as a limit tells only on which side of the number the result lay.

Experiment [1] concerns human breast cancer cells MCF-7. Put plainly: MTT growth inhibition, MCF-7 cells. Type of experiment: cell-based. To be noted: MCF7, 72 h after treatment, read-out: Drug concentration (IC50) at which 50% cancer cells survived.
Experiment [2] relates to human breast cancer cells MDA-MB-231. Kind of experiment: MTT growth inhibition, MDA-MB-231 cells. Type of experiment: cell-based. The conditions noted are these: 72 h after treatment, read-out: Drug concentration (IC50) at which 50% cancer cells survived.
Experiment [3] has as its system human gastric cancer cells BGC-823. Put plainly: MTT growth inhibition, BGC-823 cells. Type of experiment: cell-based. The conditions noted are these: 72 h after treatment, read-out: Drug concentration (IC50) at which 50% cancer cells survived.
Experiment [4] relates to human prostate cancer cells PC-3. Kind of experiment: MTT growth inhibition, PC-3 cells. Type of experiment: cell-based. To be noted: 72 h after treatment, read-out: Drug concentration (IC50) at which 50% cancer cells survived.
Experiment [5] relates to human lymphoma cells U937. Put plainly: MTT growth inhibition, U937 cells. Type of experiment: cell-based. To be noted: Homo sapiens, U-937, 72 h after treatment, read-out: Drug concentration (IC50) at which 50% cancer cells survived. Put shortly:
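At 48 h and 72 h after dosing, MTT was added for 4 h in serum-free DMEM, formazan was dissolved in DMSO and absorbance read at 570 nm. Relative survival was calculated against untreated cell control, and IC50 derived by regression from three repeat experiments.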

The test system of experiment [6] is human cervical cancer Hela cell lines. Put plainly: MTT growth inhibition, Hela cells. The conditions noted are these: Homo sapiens, 72 h after treatment, read-out: Drug concentration (IC50) at which 50% cancer cells survived. Type of experiment: cell-based.
Experiment [7] relates to highly metastatic Lewis lung cancer cell lines. Put plainly: MTT growth inhibition, LLC cells. Type of experiment: cell-based, mouse. To be noted: Mus musculus, Lewis lung carcinoma, 72 h after treatment, read-out: Drug concentration (IC50) at which 50% cancer cells survived.
Experiment [8] concerns human breast cancer cells MDA-MB231 xenograft. Kind of experiment: In-vivo growth of MDA-MB231 xenografts in nude mice. Details: species or system BALB/c nude mice. The conditions noted are these: Mus musculus, MDA-MB-231, ip, MB-231 xenograft, vs DMSO solvent control, read-out: Curative effect (inhibition rate %) of tumor weight; for inhibition in vivo at 60 mg/kg: 60 mg/kg intraperitoneal once a day; for inhibition in vivo at 90 mg/kg: 90 mg/kg intraperitoneal once a day. The method, then:
RPMI1640 and DMEM culture solutions: Hyclone Company; inactivated fetal bovine serum: Hyclone Company, preserved at −20° C.; trypsin: Amersco Company; and 0.4% trypan blue: Sigma Company;
(3) Observation of growth of tumors in nude mice: the activities (including food intake, traits of urine and stool, mental state and the like) of the nude mice and the tumor growth time and growth situation of the transplanted tumors were observed every day, the body weight and the size of the tumors were measured once every 2-3 days. The long diameter a and the short diameter b (mm) of each tumor were measured by a vernier caliper to calculate the volume, wherein the volume V=π1/2·ab^2 (mm^3);
(4) sacrifice of animals: the mice were anesthetized and photoed after treatment experiments; the nude mice were sacrificed by breaking neck, the tumor tissues were stripped under sterile conditions and the weight of the tumors was weighed; and the effects of the drugs on pathology and toxicity of the various organs and tissues were detected.

Another experiment has as its system Dvl-1. Put plainly: Western Blotting, Dvl-1 level. Type of experiment: cell-based. To be noted: human liver cancer cells, Lewis lung cancer cells and other cancer cell lines and tumor tissues, read-out: Effective concentration (IC50) for inhibition of Dvl-1. From the text:
(§1) Antibodies: primary antibodies of VEGFR, EGFR, c-Met, K-Ras, H-Ras, Akt, NF-κB, Cyclin D1, ER-alpha, Dvl-1, Dvl-2, Dvl-3, MMP-9, MMP2, β-catenin, Bcl-2, Bax, p53, p21, E-cadherin and Caspase3 protein, purchased from American Cell Signaling Technology Company and Santa Cruz Technology Company; and H3 acetylation, H4 acetylation and HDAC (HDAC3, HDAC4 and the like) Antibody Sample Kits, purchased from Cell Signaling Technology Company of the U.S.
(§2) (3) polyacrylamide gel electrophoresis (SDS-PAGE): an equal amount of protein lysate sample was used to separate protein, film transfer, and blocking, treated with appropriate primary antibodies and secondary antibodies in sequence, and the film was washed, then the color was developed with ECL kit, and a blot protein band was detected by exposure of an X-ray film; and a Gel-Pro Analyzer was used for quantitative analysis of gray degree, optical density value of the control group and the drug treatment group in various concentration were respectively compared with that of internal reference, the obtained ratios were respectively compared with the control group, and the protein expression level was semi-quantified.

A further experiment relates to VEGFR1. Kind of experiment: Western Blotting, VEGFR1 level. Type of experiment: cell-based. To be noted: human liver cancer cells, Lewis lung cancer cells and other cancer cell lines and tumor tissues, read-out: Effective concentration (IC50) for inhibition of VEGFR1.
Source text: as §1, §2

In another experiment the test system is VEGFR2. Put plainly: Western Blotting, VEGFR2 level. Type of experiment: cell-based. To be noted: human liver cancer cells, Lewis lung cancer cells and other cancer cell lines and tumor tissues, read-out: Effective concentration (IC50) for inhibition of VEGFR2.
Source text: as §1, §2

For a further experiment, the system named is HDAC4. Put plainly: Western Blotting, HDAC4 level. Type of experiment: cell-based. The conditions noted are these: human liver cancer cells, Lewis lung cancer cells and other cancer cell lines and tumor tissues, read-out: Effective concentration (IC50) for inhibition of HDAC4.
Source text: as §1, §2

Regarding `CCNC(=O)CC[C@@H](NC(=O)c1cc2cc(Cl)ccc2oc1=O)C(=O)OCC` [Compound Ic, (R)-2-(6-CI-2-oxo-2H-benzopyran-3-carboxamido)-5-ethylamino-5-oxo-pentanoic acid ethyl ester], the pIC50 in experiment [1] is 4.02; in experiment [2], 4.06; in experiment [3], 4.18; in experiment [4], 3.98; in [5] it was 4.28; in experiment [6], 3.46. For the same compound, the pIC50 was 3.88 in experiment [7]; over 3.60 in the experiment on Dvl-1; over 4.00 with VEGFR1; over 4.00 in the experiment on VEGFR2; over 4.30 with HDAC4. The inhibition in vivo at 60 mg/kg in experiment [8] was found to be 54.1%. In experiment [8], the inhibition in vivo at 90 mg/kg is 65.5%.

Regarding `CCNC(=O)CC[C@@H](NC(=O)c1cc2cc(Br)ccc2oc1=O)C(=O)OCC` [Compound Id, (R)-2-(6-Br-2-oxo-2H-benzopyran-3-carboxamido)-5-ethylamino-5-oxo-pentanoic acid ethyl ester], the pIC50 was 3.99 in experiment [1]; 4.04 in experiment [2]; 4.19 in [3]; 3.96 in experiment [4]; 3.91 in experiment [5]; 4.12 in experiment [6]. For the same compound, the pIC50 is 3.94 in experiment [7]; over 3.60 in the experiment with Dvl-1; over 4.00 in the experiment on VEGFR1; over 4.00 with VEGFR2; over 4.30 with HDAC4. Further, the inhibition in vivo at 60 mg/kg in [8] was determined as 53.1%. In addition, the inhibition in vivo at 90 mg/kg in [8] was 66.7%.
